Laboratory results reported in article PMC5569447 (Iranian Journal of Basic Medical Sciences, 2017).
Peptide text beside a SMILES is read from it.

Test system: Mtb strain H37Rv ATCC 27294
Conditions: 24 h

SMILES: N=C(N)NCCC[C@H](NC(=O)[C@@H]1CCCN1)C(=O)N1CCC[C@H]1C(=O)O [PRP] (H-Pro-Arg-Pro-OH)
- MABA MIC: >800 µM

SMILES: N=C(N)NCCC[C@H](NC(=O)[C@@H]1CCCN1C(=O)[C@@H](N)CO)C(=O)O [SPR] (H-Ser-Pro-Arg-OH)
- MABA MIC: >800 µM

SMILES: N[C@@H](CO)C(=O)NCC(=O)N1CCC[C@H]1C(=O)O [SGP] (H-Ser-Gly-Pro-OH)
- MABA MIC: >800 µM

SMILES: C[C@@H](O)[C@H](NC(=O)[C@@H](N)CCC(N)=O)C(=O)N[C@@H](CCC(N)=O)C(=O)O [QTQ] (H-Gln-Thr-Gln-OH)
- MABA MIC: >800 µM

SMILES: N=C(N)NCCC[C@H](NC(=O)[C@@H]1CCCN1C(=O)[C@@H](N)CCCNC(=N)N)C(=O)O [RPR, arginine-proline-arginine] (H-Arg-Pro-Arg-OH)
- MABA MIC: 200 µM

SMILES: CC(C)[C@H](NC(=O)CN)C(=O)N1CCC[C@H]1C(=O)NCC(=O)O [GVPG, glycine-valine-proline-glycine] (H-GVPG-OH)
- MABA MIC: 200 µM

SMILES: N=C(N)NCCC[C@H](NC(=O)[C@@H]1CCCN1)C(=O)NCC(=O)O [PRG] (H-Pro-Arg-Gly-OH)
- MABA MIC: >800 µM

SMILES: N=C(N)NCCC[C@H](NC(=O)[C@@H](N)CO)C(=O)N1CCC[C@H]1C(=O)O [SRP] (H-Ser-Arg-Pro-OH)
- MABA MIC: >800 µM

SMILES: CC(C)[C@H](NC(=O)[C@@H](NC(=O)[C@@H]1CCCN1)[C@@H](C)O)C(=O)O [PTV] (H-Pro-Thr-Val-OH)
- MABA MIC: >800 µM
